Test results reported in patent publication US6645918B1, “N-([1,2,4]triazoloazinyl)thiophenesulfonamide compounds and their use as herbicides” (Dow AgroSciences LLC, priority 2000, dated 2003).
Values belong to the compound of their own block, whether it stands above or below them.

Experiments:
[1] = test system: chickweed (Stellaria media); test: Postemergence herbicidal activity, chickweed; format: in vivo; conditions: foliar spray, visual after 2 weeks, 0 no injury, 100 complete kill
Procedure, shortened: (§1)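 Postemergence foliar spray to pots at 1st–2nd true leaf, grown 7–21 d at ~23–29 °C day. Spray carrier: acetone/water/IPA/DMSO/crop oil/Triton X-155; 1 ppm ≈ 1 g/ha. Read-out: visual injury 0 (none) to 100% (complete kill), 2 wk.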

[2] = test system: cocklebur (Xanthium strumarium); test: Postemergence herbicidal activity, cocklebur; format: in vivo; conditions: foliar spray, visual after 2 weeks, 0 no injury, 100 complete kill
Procedure, shortened: as §1

[3] = test system: lambsquarters (Chenopodium album); test: Postemergence herbicidal activity, lambsquarters; format: in vivo; conditions: foliar spray, visual after 2 weeks, 0 no injury, 100 complete kill
Procedure, shortened: as §1

[4] = test system: morningglory (Ipomoea hederacea); test: Postemergence herbicidal activity, morningglory; format: in vivo; conditions: foliar spray, visual after 2 weeks, 0 no injury, 100 complete kill
Procedure, shortened: as §1

[5] = test system: pigweed (Amaranthus retroflexus); test: Postemergence herbicidal activity, pigweed; format: in vivo; conditions: foliar spray, visual after 2 weeks, 0 no injury, 100 complete kill
Procedure, shortened: as §1

[6] = test system: velvetleaf (Abutilion theophrasti); test: Postemergence herbicidal activity, velvetleaf; format: in vivo; conditions: foliar spray, visual after 2 weeks, 0 no injury, 100 complete kill
Procedure, shortened: as §1

viola (Viola tricolor) = test: Postemergence herbicidal activity, viola; format: in vivo; conditions: foliar spray, visual after 2 weeks, 0 no injury, 100 complete kill
Procedure, shortened: as §1

[7] = test system: wild buckwheat (Polygonum convolvulus); test: Postemergence herbicidal activity, wild buckwheat; format: in vivo; conditions: foliar spray, visual after 2 weeks, 0 no injury, 100 complete kill
Procedure, shortened: as §1

[8] = test system: blackgrass (Alopecurus myosuroides); test: Postemergence herbicidal activity, blackgrass; format: in vivo; conditions: foliar spray, visual after 2 weeks, 0 no injury, 100 complete kill
Procedure, shortened: as §1

[9] = test system: giant foxtail (Setaria faberi); test: Postemergence herbicidal activity, giant foxtail; format: in vivo; conditions: foliar spray, visual after 2 weeks, 0 no injury, 100 complete kill
Procedure, shortened: as §1

[10] = test system: Rox orange sorghum (Sorghum bicolor); test: Postemergence herbicidal activity, Rox orange sorghum; format: in vivo; conditions: foliar spray, visual after 2 weeks, 0 no injury, 100 complete kill
Procedure, shortened: as §1

wild oats (Avena fatua) [11] = test: Postemergence herbicidal activity, wild oats; format: in vivo; conditions: foliar spray, visual after 2 weeks, 0 no injury, 100 complete kill
Procedure, shortened: as §1

[12] = test system: cocklebur (Xanthium strumarium); test: Preemergence herbicidal activity, cocklebur; format: in vivo; conditions: 17.5 g/Ha, soil spray, visual after 3 weeks; 0 no injury, 100 complete kill or no germination
Procedure, shortened: (§2)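 Visual injury score (0% = none, 100% = complete kill or no germination) vs untreated controls at 3 weeks. Pre-emergence soil spray on seeded pots, max 4.48 kg/ha. Greenhouse: ~15 h photoperiod, day 23-29 °C, night 22-28 °C, top-irrigated.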

[13] = test system: lambsquarters (Chenopodium album); test: Preemergence herbicidal activity, lambsquarters; format: in vivo; conditions: 17.5 g/Ha, soil spray, visual after 3 weeks; 0 no injury, 100 complete kill or no germination
Procedure, shortened: as §2

[14] = test system: morningglory (Ipomoea hederacea); test: Preemergence herbicidal activity, morningglory; format: in vivo; conditions: 17.5 g/Ha, soil spray, visual after 3 weeks; 0 no injury, 100 complete kill or no germination
Procedure, shortened: as §2

[15] = test system: pigweed (Amaranthus retroflexus); test: Preemergence herbicidal activity, pigweed; format: in vivo; conditions: 17.5 g/Ha, soil spray, visual after 3 weeks; 0 no injury, 100 complete kill or no germination
Procedure, shortened: as §2

[16] = test system: velvetleaf (Abutilion theophrasti); test: Preemergence herbicidal activity, velvetleaf; format: in vivo; conditions: 17.5 g/Ha, soil spray, visual after 3 weeks; 0 no injury, 100 complete kill or no germination
Procedure, shortened: as §2

[17] = test system: wild poinsettia (Euphorbia heterophylla); test: Preemergence herbicidal activity, wild poinsettia; format: in vivo; conditions: 17.5 g/Ha, soil spray, visual after 3 weeks; 0 no injury, 100 complete kill or no germination
Procedure, shortened: as §2

[18] = test system: blackgrass (Alopecurus myosuroides); test: Preemergence herbicidal activity, blackgrass; format: in vivo; conditions: 17.5 g/Ha, soil spray, visual after 3 weeks; 0 no injury, 100 complete kill or no germination
Procedure, shortened: as §2

[19] = test system: barnyardgrass (Echinochloa crus-galli); test: Preemergence herbicidal activity, barnyardgrass; format: in vivo; conditions: 17.5 g/Ha, soil spray, visual after 3 weeks; 0 no injury, 100 complete kill or no germination
Procedure, shortened: as §2

[20] = test system: crabgrass (Digitaria sanguinalis); test: Preemergence herbicidal activity, crabgrass; format: in vivo; conditions: 17.5 g/Ha, soil spray, visual after 3 weeks; 0 no injury, 100 complete kill or no germination
Procedure, shortened: as §2

[21] = test system: giant foxtail (Setaria faberi); test: Preemergence herbicidal activity, giant foxtail; format: in vivo; conditions: 17.5 g/Ha, soil spray, visual after 3 weeks; 0 no injury, 100 complete kill or no germination
Procedure, shortened: as §2

[22] = test system: Rox orange sorghum (Sorghum bicolor); test: Preemergence herbicidal activity, Rox orange sorghum; format: in vivo; conditions: 17.5 g/Ha, soil spray, visual after 3 weeks; 0 no injury, 100 complete kill or no germination
Procedure, shortened: as §2

wild oats (Avena fatua) [23] = test: Preemergence herbicidal activity, wild oats; format: in vivo; conditions: 17.5 g/Ha, soil spray, visual after 3 weeks; 0 no injury, 100 complete kill or no germination
Procedure, shortened: as §2

melting point: 227 to 228 °C
Compound: COc1ccsc1S(=O)(=O)Nc1nc2c(OC)cnc(OC)n2n1 [Compound 1, 3-Methoxy-N-(5,8-dimethoxy[1,2,4]triazolo[1,5-c]pyrimidin-2-yl)thiophene-2-sulfonamide]
STEME postemergence injury score 0-100 ([1]; 3.9 ppm): 75%
XANST postemergence injury score 0-100 ([2]; 3.9 ppm): 50%
CHEAL postemergence injury score 0-100 ([3]; 3.9 ppm): 75%
IPOHE postemergence injury score 0-100 ([4]; 3.9 ppm): 85%
AMARE postemergence injury score 0-100 ([5]; 3.9 ppm): 95%
ABUTH postemergence injury score 0-100 ([6]; 3.9 ppm): 75%
VIOTR postemergence injury score 0-100 (viola (Viola tricolor); 3.9 ppm): 70%
POLCO postemergence injury score 0-100 ([7]; 3.9 ppm): 98%
ALOMY postemergence injury score 0-100 ([8]; 3.9 ppm): 95%
SETFA postemergence injury score 0-100 ([9]; 3.9 ppm): 100%
SORBI postemergence injury score 0-100 ([10]; 3.9 ppm): 98%
AVEFA postemergence injury score 0-100 (wild oats (Avena fatua) [11]; 3.9 ppm): 99%
XANST preemergence injury score 0-100 [12]: 70%
CHEAL preemergence injury score 0-100 [13]: 98%
IPOHE preemergence injury score 0-100 [14]: 85%
AMARE preemergence injury score 0-100 [15]: 100%
ABUTH preemergence injury score 0-100 [16]: 98%
EPHHL preemergence injury score 0-100 [17]: 100%
ALOMY preemergence injury score 0-100 [18]: 100%
ECHCG preemergence injury score 0-100 [19]: 100%
DIGSA preemergence injury score 0-100 [20]: 100%
SETFA preemergence injury score 0-100 [21]: 100%
SORBI preemergence injury score 0-100 [22]: 100%
AVEFA preemergence injury score 0-100 (wild oats (Avena fatua) [23]): 100%

Compound: COc1cc(OC)n2nc(NS(=O)(=O)c3c(OC)csc3C(F)(F)F)nc2n1 [Compound 25]
STEME postemergence injury score 0-100 ([1]; 31 ppm): 60%
XANST postemergence injury score 0-100 ([2]; 31 ppm): 90%
CHEAL postemergence injury score 0-100 ([3]; 31 ppm): 90%
IPOHE postemergence injury score 0-100 ([4]; 31 ppm): 70%
AMARE postemergence injury score 0-100 ([5]; 31 ppm): 90%
ABUTH postemergence injury score 0-100 ([6]; 31 ppm): 70%
VIOTR postemergence injury score 0-100 (viola (Viola tricolor); 31 ppm): 70%
POLCO postemergence injury score 0-100 ([7]; 31 ppm): 70%
ALOMY postemergence injury score 0-100 ([8]; 31 ppm): 80%
SETFA postemergence injury score 0-100 ([9]; 31 ppm): 80%
SORBI postemergence injury score 0-100 ([10]; 31 ppm): 95%
AVEFA postemergence injury score 0-100 (wild oats (Avena fatua) [11]; 31 ppm): 80%
XANST preemergence injury score 0-100 [12]: 50%
CHEAL preemergence injury score 0-100 [13]: 90%
IPOHE preemergence injury score 0-100 [14]: 60%
AMARE preemergence injury score 0-100 [15]: 95%
ABUTH preemergence injury score 0-100 [16]: 80%
EPHHL preemergence injury score 0-100 [17]: 80%
ALOMY preemergence injury score 0-100 [18]: 95%
ECHCG preemergence injury score 0-100 [19]: 85%
DIGSA preemergence injury score 0-100 [20]: 85%
SETFA preemergence injury score 0-100 [21]: 85%
SORBI preemergence injury score 0-100 [22]: 90%
AVEFA preemergence injury score 0-100 (wild oats (Avena fatua) [23]): 80%
